Assay results as given in PubChem BioAssay AID2060899 (Molecular Pharmacology Branch, DTP, NCI, 2025).

System: 565726-208-R1-J5-PDC complex spheroids, growth inhibition
Test: Anticancer human tumor 565726-208-R1-J5-PDC patient-derived pancreatic adenocarcinoma cell line growth inhibition [RAS]
Conditions: for IC50: curve of first compound; for viability, T/C: stronger effect = lower value
Outline: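 Multi-cell-type spheroids: tumor cells plus HUVEC endothelial cells and mesenchymal stem cells. RAS-pathway inhibitors were combined with targeted agents, each dosed in half-log steps down from clinical Cmax, or from 10 microM when Cmax was unknown.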
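Note: spheroids exposed to compounds for seven days before readout.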
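Throughout, for viability, T/C: 100% = DMSO vehicle control viability.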

O=C(c1ccc(F)c(F)c1Nc1ccc(I)cc1F)N1CC(O)([C@@H]2CCCCN2)C1 + C#Cc1c(F)ccc2cc(O)cc(-c3ncc4c(N5CC6CCC(C5)N6)nc(OCC56CCCN5CC(F)C6)nc4c3F)c12
IC50 (second compound 0.0316 µM): 593 nM | IC50 (second compound 0.1 µM): > 1000 nM | IC50 (second compound 0.316 µM): 95 nM | IC50 (second compound 1 µM): 76.8 nM | IC50 (second compound 3.16 µM): 83.4 nM | IC50 (second compound 10 µM): 26.3 nM | viability, T/C (second compound 0.0316 µM, first compound 0.00316 µM): 118% | viability, T/C (second compound 0.0316 µM, first compound 0.01 µM): 131% | viability, T/C (second compound 0.0316 µM, first compound 0.0316 µM): 74.8% | viability, T/C (second compound 0.0316 µM, first compound 0.1 µM): 76.5% | viability, T/C (second compound 0.0316 µM, first compound 0.316 µM): 78.3% | viability, T/C (second compound 0.0316 µM, first compound 1 µM): 33.3% | viability, T/C (second compound 0.1 µM, first compound 0.00316 µM): 116% | viability, T/C (second compound 0.1 µM, first compound 0.01 µM): 138% | viability, T/C (second compound 0.1 µM, first compound 0.0316 µM): 69.1% | viability, T/C (second compound 0.1 µM, first compound 0.1 µM): 62.3% | viability, T/C (second compound 0.1 µM, first compound 0.316 µM): 63.6% | viability, T/C (second compound 0.1 µM, first compound 1 µM): 34.8% | viability, T/C (second compound 0.316 µM, first compound 0.00316 µM): 117% | viability, T/C (second compound 0.316 µM, first compound 0.01 µM): 118% | viability, T/C (second compound 0.316 µM, first compound 0.0316 µM): 67.3% | viability, T/C (second compound 0.316 µM, first compound 0.1 µM): 53.9% | viability, T/C (second compound 0.316 µM, first compound 0.316 µM): 62.7% | viability, T/C (second compound 0.316 µM, first compound 1 µM): 31% | viability, T/C (second compound 1 µM, first compound 0.00316 µM): 133% | viability, T/C (second compound 1 µM, first compound 0.01 µM): 103% | viability, T/C (second compound 1 µM, first compound 0.0316 µM): 62.8% | viability, T/C (second compound 1 µM, first compound 0.1 µM): 43% | viability, T/C (second compound 1 µM, first compound 0.316 µM): 58% | viability, T/C (second compound 1 µM, first compound 1 µM): 28.8% | viability, T/C (second compound 3.16 µM, first compound 0.00316 µM): 109% | viability, T/C (second compound 3.16 µM, first compound 0.01 µM): 91.7% | viability, T/C (second compound 3.16 µM, first compound 0.0316 µM): 65.6% | viability, T/C (second compound 3.16 µM, first compound 0.1 µM): 38.8% | viability, T/C (second compound 3.16 µM, first compound 0.316 µM): 43.7% | viability, T/C (second compound 3.16 µM, first compound 1 µM): 17.8% | viability, T/C (second compound 10 µM, first compound 0.00316 µM): 88.1% | viability, T/C (second compound 10 µM, first compound 0.01 µM): 63% | viability, T/C (second compound 10 µM, first compound 0.0316 µM): 39% | viability, T/C (second compound 10 µM, first compound 0.1 µM): 38.9% | viability, T/C (second compound 10 µM, first compound 0.316 µM): 22.1% | viability, T/C (second compound 10 µM, first compound 1 µM): 5.94%

CCN1CCN(Cc2ccc(Nc3ncc(F)c(-c4cc(F)c5nc(C)n(C(C)C)c5c4)n3)nc2)CC1 + CCn1c(-c2cc(N3CCN(C)CC3)cnc2C(C)OC)c2c3cc(ccc31)-c1csc(n1)CC(NC(=O)C1CC1C)C(=O)N1CCCC(N1)C(=O)OCC(C)(C)C2
IC50 (second compound 0.000949 µM): 72.8 nM | IC50 (second compound 0.003 µM): < 3.16 nM | IC50 (second compound 0.00949 µM): < 3.16 nM | IC50 (second compound 0.03 µM): < 3.16 nM | IC50 (second compound 0.0949 µM): < 3.16 nM | IC50 (second compound 0.3 µM): < 3.16 nM | viability, T/C (second compound 0.000949 µM, first compound 0.00316 µM): 57.7% | viability, T/C (second compound 0.000949 µM, first compound 0.01 µM): 57.9% | viability, T/C (second compound 0.000949 µM, first compound 0.0316 µM): 57% | viability, T/C (second compound 0.000949 µM, first compound 0.1 µM): 47.2% | viability, T/C (second compound 0.000949 µM, first compound 0.316 µM): 35.4% | viability, T/C (second compound 0.000949 µM, first compound 1 µM): 31.6% | viability, T/C (second compound 0.003 µM, first compound 0.00316 µM): 51.7% | viability, T/C (second compound 0.003 µM, first compound 0.01 µM): 41.4% | viability, T/C (second compound 0.003 µM, first compound 0.0316 µM): 51.7% | viability, T/C (second compound 0.003 µM, first compound 0.1 µM): 35.5% | viability, T/C (second compound 0.003 µM, first compound 0.316 µM): 35% | viability, T/C (second compound 0.003 µM, first compound 1 µM): 23.9% | viability, T/C (second compound 0.00949 µM, first compound 0.00316 µM): 41.4% | viability, T/C (second compound 0.00949 µM, first compound 0.01 µM): 41.4% | viability, T/C (second compound 0.00949 µM, first compound 0.0316 µM): 31.1% | viability, T/C (second compound 0.00949 µM, first compound 0.1 µM): 32.4% | viability, T/C (second compound 0.00949 µM, first compound 0.316 µM): 22.3% | viability, T/C (second compound 0.00949 µM, first compound 1 µM): 18.8% | viability, T/C (second compound 0.03 µM, first compound 0.00316 µM): 33.2% | viability, T/C (second compound 0.03 µM, first compound 0.01 µM): 29.2% | viability, T/C (second compound 0.03 µM, first compound 0.0316 µM): 28.4% | viability, T/C (second compound 0.03 µM, first compound 0.1 µM): 25.5% | viability, T/C (second compound 0.03 µM, first compound 0.316 µM): 22.7% | viability, T/C (second compound 0.03 µM, first compound 1 µM): 18.8% | viability, T/C (second compound 0.0949 µM, first compound 0.00316 µM): 25.1% | viability, T/C (second compound 0.0949 µM, first compound 0.01 µM): 23.8% | viability, T/C (second compound 0.0949 µM, first compound 0.0316 µM): 22% | viability, T/C (second compound 0.0949 µM, first compound 0.1 µM): 21.1% | viability, T/C (second compound 0.0949 µM, first compound 0.316 µM): 19.4% | viability, T/C (second compound 0.0949 µM, first compound 1 µM): 15.7% | viability, T/C (second compound 0.3 µM, first compound 0.00316 µM): 24.1% | viability, T/C (second compound 0.3 µM, first compound 0.01 µM): 23.3% | viability, T/C (second compound 0.3 µM, first compound 0.0316 µM): 20.1% | viability, T/C (second compound 0.3 µM, first compound 0.1 µM): 18.8% | viability, T/C (second compound 0.3 µM, first compound 0.316 µM): 18% | viability, T/C (second compound 0.3 µM, first compound 1 µM): 15.6%
